Measured values from US20240285634A1, “COMPOUND AND METHOD FOR TREATING CHEMOTHERAPY-ASSOCIATED GASTROINTESTINAL SIDE EFFECTS” (ONQUALITY PHARMACEUTICALS CHINA LTD., priority 2021, published 2024).

What was measured:
[1] = tested on: Chemotherapeutic agent-caused constipation models of Balb/c mice; assay: Relieving effect on constipation caused by a chemotherapeutic agent (Examples 202-364); type: in vivo
Excerpt: Construction of mouse animal models: Chemotherapeutic agent-caused constipation models of Balb/c mice were constructed according to the administration mode and frequency of the chemotherapeutic agent as shown in Table 4. […] Thus, chemotherapeutic agent-caused constipation models of mice are very good models to mimic constipation caused by the chemotherapeutic agent.
Balb/c mice were fed for 1 week, and then divided into groups. The experiment was divided into a control group, a chemotherapeutic agent group, and a group of the compound as shown in Formula I, each of which comprised 10 mice, to perform the administration experiment, for which the administration dosage, mode, time and frequency were shown in Table 4. The control group: being injected or intragastrically administered with the same solvent as that used in the group of the compound as shown in Formula I (the administration mode and time were shown in Table 4), and then being injected or intragastrically administered with the same solvent as that used in the chemotherapeutic agent group (the administration mode was shown in Table 4); the chemotherapeutic agent group: being injected or intragastrically administered with the same solvent as that used in the group of the compound as shown in Formula I (the administration mode and time was shown in Table 4), and then being injected or intragastrically administered with the chemotherapeutic agent (the type, administration mode and dosage were shown in Table 4); the group of the compound as shown in Formula I: being injected or intragastrically administered with the compound as shown in Formula I (the administration mode and time was shown in Table 4), and then being administered with the chemotherapeutic agent (the administration mode and dosage were shown in Table 4).
(§1) The feces reduction rate was calculated with reference to the method of Ji Eun Kim (Lab Anim Res. 2016 December; 32(4): 231-240.). Feces reduction rate (%)=(the control group−the chemotherapeutic agent group or the group of the compound as shown in Formula I)/the control group*100%
(§2) It is regarded as effective remission when the feces reduction rate of mice in the group of the compound as shown in Formula I is reduced compared with that in the chemotherapeutic agent group.
The feces amount of mice within 3 hours was observed and recorded every day. At the end of the experiment, the number of mice in the group of the compound as shown in Formula I whose feces reduction rate was lower than that of mice in the chemotherapeutic agent group was recorded. Table 4 lists various animal experiment combinations of chemotherapeutic agents and the compound as shown in Formula I, as well as the corresponding experimental results.

[2] = tested on: Balb/c mice, constipation caused by continuous administration of a chemotherapeutic agent; assay: Relieving effect on constipation caused by the continuous administration of a chemotherapeutic agent (Examples 385-405); type: in vivo
Excerpt: Balb/c mice were fed for 1 week, and then divided into groups. The experiment was divided into a control group, a chemotherapeutic agent group, and a group of the compound as shown in Formula I, each of which comprised 10 mice, to perform the administration experiment, for which the administration dosage, mode, time and frequency were shown in Table 6. The control group: being injected or intragastrically administered with the same solvent as that used in the group of the compound as shown in Formula I (the administration mode and time were shown in Table 6), and then being injected or intragastrically administered with the same solvent as that used in the group of the compound as shown in Formula I (the administration mode was shown in Table 6); the chemotherapeutic agent group: being injected or intragastrically administered with the same solvent as that used in the group of the compound as shown in Formula I (the administration mode and time were shown in Table 6), and then being injected or intragastrically administered with the chemotherapeutic agent (the type, administration mode, time and dosage were shown in Table 6); the group of the compound as shown in Formula I: being injected or intragastrically administered with the compound as shown in Formula I (the administration mode and time were shown in Table 6), and then being administered with the chemotherapeutic agent (the type, administration mode, time and dosage were shown in Table 6).
as §1, §2
The feces amount of mice within 3 hours was observed and recorded every day. At the end of the experiment, the number of mice in the group of the compound as shown in Formula I whose feces reduction rate was lower than that of mice in the chemotherapeutic agent group was recorded. Table 6 lists various animal experiment combinations of chemotherapeutic agents and the compound as shown in Formula I, as well as the corresponding experimental results.

## CN1CCN(c2ccc(Nc3ncc4cc5n(c4n3)C3(CCCCC3)CNC5=O)nc2)CC1 [Compound I, Trilaciclib]
[1]; Example 336, Fluorouracil 100 (F), oxaliplatin 5 (O), irinotecan 100 (I) and tetrahydrofolic acid 100 (L) mg/kg intravenous injection single, compound intravenous injection 100 mg/kg single, 12 h before chemotherapeutic agent, cycle 8 days
  Relative remission rate (%): 60%
[1]; Example 337, Fluorouracil 100 (F), oxaliplatin 5 (O), irinotecan 100 (I) and tetrahydrofolic acid 100 (L) mg/kg intravenous injection single, compound intravenous injection 100 mg/kg single, 14 h before chemotherapeutic agent, cycle 8 days
  Relative remission rate (%): 40%
[1]; Example 338, Fluorouracil 100 (F), oxaliplatin 5 (O), irinotecan 100 (I) and tetrahydrofolic acid 100 (L) mg/kg intravenous injection single, compound intravenous injection 100 mg/kg single, 16 h before chemotherapeutic agent, cycle 8 days
  Relative remission rate (%): 40%
[1]; Example 339, Fluorouracil 100 (F), oxaliplatin 5 (O), irinotecan 100 (I) and tetrahydrofolic acid 100 (L) mg/kg intravenous injection single, compound intravenous injection 100 mg/kg single, 18 h before chemotherapeutic agent, cycle 8 days
  Relative remission rate (%): 40%
[1]; Example 340, Fluorouracil 100 (F), oxaliplatin 5 (O), irinotecan 100 (I) and tetrahydrofolic acid 100 (L) mg/kg intravenous injection single, compound intravenous injection 100 mg/kg single, 20 h before chemotherapeutic agent, cycle 8 days
  Relative remission rate (%): 30%
[1]; Example 341, Fluorouracil 100 (F), oxaliplatin 5 (O), irinotecan 100 (I) and tetrahydrofolic acid 100 (L) mg/kg intravenous injection single, compound intravenous injection 100 mg/kg single, 24 h before chemotherapeutic agent, cycle 8 days
  Relative remission rate (%): 30%
[1]; Example 342, Fluorouracil 100 (F), oxaliplatin 5 (O), irinotecan 100 (I) and tetrahydrofolic acid 100 (L) mg/kg intravenous injection single, compound intravenous injection 100 mg/kg single, 48 h before chemotherapeutic agent, cycle 8 days
  Relative remission rate (%): 0%
[1]; Example 345, Fluorouracil 100 (F), oxaliplatin 5 (O), irinotecan 100 (I) and tetrahydrofolic acid 100 (L) mg/kg intraperitoneal injection single, compound oral administration 100 mg/kg single, 6 h before chemotherapeutic agent, cycle 7 days
  Relative remission rate (%): 60%
[1]; Example 346, Fluorouracil 100 (F), oxaliplatin 5 (O), irinotecan 100 (I) and tetrahydrofolic acid 100 (L) mg/kg intraperitoneal injection single, compound oral administration 100 mg/kg single, 24 h before chemotherapeutic agent, cycle 7 days
  Relative remission rate (%): 40%
[1]; Example 355, Fluorouracil 100 (F), oxaliplatin 5 (O), irinotecan 200 (I) and tetrahydrofolic acid 100 (L) mg/kg oral administration single, compound subcutaneous injection 100 mg/kg single, 0.5 h before chemotherapeutic agent, cycle 7 days
  Relative remission rate (%): 50%
[1]; Example 356, Fluorouracil 100 (F), oxaliplatin 5 (O), irinotecan 200 (I) and tetrahydrofolic acid 100 (L) mg/kg oral administration single, compound subcutaneous injection 100 mg/kg single, 4 h before chemotherapeutic agent, cycle 7 days
  Relative remission rate (%): 50%
[1]; Example 360, Gemcitabine (GEM) intravenous injection 120 mg/kg single, compound oral administration 100 mg/kg single, 24 h before chemotherapeutic agent, cycle 8 days
  Relative remission rate (%): 30%
[1]; administered before the chemotherapeutic agent, Table 4 and FIG. 4
  feces reduction rates compared with the chemotherapeutic agent group: reduced to different degrees
[2]; Example 385, Fluorouracil (5-Fu) 100 mg/kg intraperitoneal injection once a day for 3 days, compound 100 mg/kg intravenous injection once a day for 3 days, 0.5 h before the chemotherapeutic agent, experimental cycle 7 days
  Relative remission rate (%): 70%
[2]; Example 386, Fluorouracil (5-Fu) 100 mg/kg intraperitoneal injection once a day for 3 days, compound 100 mg/kg intravenous injection once a day for 3 days, 4 h before the chemotherapeutic agent, experimental cycle 7 days
  Relative remission rate (%): 50%
[2]; Example 387, Fluorouracil (5-Fu) 100 mg/kg intraperitoneal injection once a day for 3 days, compound 100 mg/kg intravenous injection once a day for 3 days, 6 h before the chemotherapeutic agent, experimental cycle 7 days
  Relative remission rate (%): 40%
[2]; Example 388, Fluorouracil (5-Fu) 100 mg/kg intraperitoneal injection once a day for 3 days, compound 100 mg/kg intravenous injection once a day for 3 days, 8 h before the chemotherapeutic agent, experimental cycle 7 days
  Relative remission rate (%): 30%
[2]; Example 389, Fluorouracil (5-Fu) 100 mg/kg intraperitoneal injection once a day for 5 days, compound 100 mg/kg intraperitoneal injection once a day for 5 days, 0.5 h before the chemotherapeutic agent, experimental cycle 9 days
  Relative remission rate (%): 60%
[2]; Example 390, Fluorouracil (5-Fu) 100 mg/kg intraperitoneal injection once a day for 5 days, compound 100 mg/kg intraperitoneal injection once a day for 5 days, 12 h before the chemotherapeutic agent, experimental cycle 9 days
  Relative remission rate (%): 30%
[2]; Example 391, Fluorouracil (5-Fu) 100 mg/kg intraperitoneal injection once a day for 5 days, compound 100 mg/kg intraperitoneal injection once a day for 5 days, 20 h before the chemotherapeutic agent, experimental cycle 9 days
  Relative remission rate (%): 10%
[2]; Example 392, Fluorouracil (5-Fu) 100 mg/kg intraperitoneal injection once a day for 5 days, compound 100 mg/kg intraperitoneal injection once a day for 5 days, 24 h before the chemotherapeutic agent, experimental cycle 9 days
  Relative remission rate (%): 10%
[2]; Example 396, Fluorouracil (5-Fu) 100 mg/kg intravenous injection once a day for 3 days, compound 100 mg/kg oral administration once a day for 3 days, 4 h before the chemotherapeutic agent, experimental cycle 7 days
  Relative remission rate (%): 40%
[2]; Example 402, Fluorouracil (5-Fu) 100 mg/kg intraperitoneal injection once a day for 7 days, compound 125 mg/kg intraperitoneal injection once a day for 7 days, 2 h before the chemotherapeutic agent, experimental cycle 10 days
  Relative remission rate (%): 10%
[2]; Example 403, Fluorouracil (5-Fu) 100 mg/kg intraperitoneal injection once a day for 7 days, compound 125 mg/kg intraperitoneal injection once a day for 7 days, 4 h before the chemotherapeutic agent, experimental cycle 10 days
  Relative remission rate (%): 10%
[2]; Example 404, Fluorouracil (5-Fu) 100 mg/kg intraperitoneal injection once a day for 7 days, compound 125 mg/kg intraperitoneal injection once a day for 7 days, 6 h before the chemotherapeutic agent, experimental cycle 10 days
  Relative remission rate (%): 10%
[2]; Example 405, Fluorouracil (5-Fu) 100 mg/kg intraperitoneal injection once a day for 7 days, compound 125 mg/kg intraperitoneal injection once a day for 7 days, 8 h before the chemotherapeutic agent, experimental cycle 10 days
  Relative remission rate (%): 0%
[2]; continuous administration of fluorouracil for less than 7 days
  relieving effects on constipation: significant relieving effects
[2]; continuous administration of the chemotherapeutic agent for 7 days or less
  relieving effects on constipation: have relieving effects
